Like-named read-outs stand apart in the source and are kept apart here.
Experiments:
[1] = tested on: induction of TAT by dexamethasone in HepG2 cells; assay: HepG2 tyrosine aminotransferase (TAT) assay; assay type: cell-based, human
human recombinant GR = target: T1, human recombinant GR (Homo sapiens, UniProt P04150); assay: Human glucocorticoid receptor (GR) fluorescence polarisation (FP) binding assay
T1 construct: purchased PanVera P2812
T1 sequence (P04150 1-777): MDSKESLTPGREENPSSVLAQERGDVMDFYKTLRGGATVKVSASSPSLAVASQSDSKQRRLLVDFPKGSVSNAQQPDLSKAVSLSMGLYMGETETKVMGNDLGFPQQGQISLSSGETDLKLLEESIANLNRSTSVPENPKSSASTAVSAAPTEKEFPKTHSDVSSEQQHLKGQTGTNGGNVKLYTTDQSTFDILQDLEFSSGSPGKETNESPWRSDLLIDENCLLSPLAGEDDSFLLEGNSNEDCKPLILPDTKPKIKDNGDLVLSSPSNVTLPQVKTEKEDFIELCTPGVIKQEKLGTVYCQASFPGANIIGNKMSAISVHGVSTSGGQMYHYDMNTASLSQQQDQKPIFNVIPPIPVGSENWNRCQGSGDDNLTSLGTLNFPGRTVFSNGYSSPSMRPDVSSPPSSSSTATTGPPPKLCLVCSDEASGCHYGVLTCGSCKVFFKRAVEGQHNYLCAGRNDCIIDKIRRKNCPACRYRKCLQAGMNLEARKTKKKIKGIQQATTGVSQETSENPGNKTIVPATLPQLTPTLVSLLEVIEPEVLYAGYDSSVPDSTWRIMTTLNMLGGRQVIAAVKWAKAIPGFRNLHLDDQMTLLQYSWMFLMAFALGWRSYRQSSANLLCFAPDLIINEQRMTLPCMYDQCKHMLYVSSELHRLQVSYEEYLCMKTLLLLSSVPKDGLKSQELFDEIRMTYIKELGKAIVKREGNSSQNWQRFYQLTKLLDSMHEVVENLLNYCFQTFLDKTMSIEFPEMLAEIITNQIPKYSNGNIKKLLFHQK
How it was run: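 Competition fluorescence polarisation: 0.5 nM GS Red labelled glucocorticoid and 1 nM recombinant human GR with 8-point half-log compound series, 1% DMSO, 4 h room temperature, potassium phosphate pH 7.4 buffer with molybdate, EDTA, DTT. Affinity derived from the drop in polarisation, normalised to blank wells.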

[2] = HepG2 cells, challenge of 100 nM dexamethasone, Ki from IC50 by Cheng and Prusoff equation
[3] = human recombinant GR, fluorescence polarisation binding assay, read-out: GR binding

Row | Ki (human recombinant GR; [3]) | Structure (SMILES) | Ki [1, 2] | Ki [1] | Ki (human recombinant GR)
1 | < 0.5 nM | O=C(c1ccccn1)[C@]12Cc3cnn(-c4ccc(F)cc4)c3C=C1CCN(S(=O)(=O)c1ccccc1)C2 [Example 2K, (R)-(1-(4-fluorophenyl)-6-(phenylsulfonyl)-4,4a,5,6,7,8-hexahydro-1H-pyrazolo [3,4-g]isoquinolin-4a-yl)(pyridin-2-yl)methanone] | < 20 nM | – | –
2 | < 0.5 nM | O=C(c1ncco1)[C@]12Cc3cnn(-c4ccc(F)cc4)c3C=C1CCN(S(=O)(=O)c1ccc(C(F)(F)F)cc1)C2 [Example 1F, (R)-(1-(4-fluorophenyl)-6-((4-(trifluoromethyl)phenyl)sulfonyl)-4,4a,5,6,7,8-hexahydro-1H-pyrazolo[3,4-g]isoquinolin-4a-yl)(oxazol-2-yl)methanone] | 20 to 100 nM | – | –
3 | < 0.5 nM | Cc1ccnc(C(=O)[C@]23Cc4cnn(-c5ccc(F)cc5)c4C=C2CCN(S(=O)(=O)c2cnn(C)c2)C3)c1 [Example 11T, (R)-(1-(4-fluorophenyl)-6-((1-methyl-1H-pyrazol-4-yl)sulfonyl)-4,4a,5,6,7,8-hexahydro-1H-pyrazolo[3,4-g]isoquinolin-4a-yl)(4-methylpyridin-2-yl)methanone] | < 20 nM | – | –
4 | < 0.5 nM | Cn1nccc1S(=O)(=O)N1CCC2=Cc3c(cnn3-c3ccc(F)cc3)C[C@]2(C(=O)c2cc(C(F)(F)F)ccn2)C1 [Example 11BM, (R)-(1-(4-fluorophenyl)-6-((1-methyl-1H-pyrazol-5-yl)sulfonyl)-4,4a,5,6,7,8-hexahydro-1H-pyrazolo[3,4-g]isoquinolin-4a-yl)(4-(trifluoromethyl)pyridin-2-yl)methanone] | < 20 nM | – | –
5 | > 1 nM | CCn1nccc1S(=O)(=O)N1CCC2=Cc3c(cnn3-c3ccc(F)cc3)C[C@]2(C(=O)c2nccs2)C1 [Example 12W, (R)-(6-((1-ethyl-1H-pyrazol-5-yl)sulfonyl)-1-(4-fluorophenyl)-4,4a,5,6,7,8-hexahydro-1H-pyrazolo[3,4-g]isoquinolin-4a-yl)(thiazol-2-yl)methanone] | ≥ 100 nM | – | –
6 | < 0.5 nM | Cc1ccnc(C(=O)[C@]23Cc4cnn(-c5ccc(F)cc5)c4C=C2CCN(S(=O)(=O)c2ccc(C(F)(F)F)c(F)c2)C3)c1 [Example 11AS, (R)-(6-((3-fluoro-4-(trifluoromethyl)phenyl)sulfonyl)-1-(4-fluorophenyl)-4,4a,5,6,7,8-hexahydro-1H-pyrazolo[3,4-g]isoquinolin-4a-yl)(4-methylpyridin-2-yl)methanone] | < 20 nM | – | –
7 | < 0.5 nM | CCn1cnc(S(=O)(=O)N2CCC3=Cc4c(cnn4-c4ccc(F)cc4)C[C@]3(C(=O)c3cc(C(F)(F)F)ccn3)C2)c1 [Example 11BY, (R)-(6-((1-ethyl-1H-imidazol-4-yl)sulfonyl)-1-(4-fluorophenyl)-4,4a,5,6,7,8-hexahydro-1H-pyrazolo[3,4-g]isoquinolin-4a-yl)(4-(trifluoromethyl)pyridin-2-yl)methanone] | < 20 nM | – | –
8 | < 0.5 nM | COc1ccc(S(=O)(=O)N2CCC3=Cc4c(cnn4-c4ccc(F)cc4)C[C@]3(C(=O)c3ccccn3)C2)cc1Cl [Example 11C, (R)-(6-((3-chloro-4-methoxyphenyl)sulfonyl)-1-(4-fluorophenyl)-4,4a,5,6,7,8-hexahydro-1H-pyrazolo[3,4-g]isoquinolin-4a-yl)(pyridin-2-yl)methanone] | 20 to 100 nM | – | –
9 | < 0.5 nM | O=C(c1ccccn1)[C@]12Cc3cnn(-c4ccc(F)cc4)c3C=C1CCN(S(=O)(=O)c1ccc(Cl)cc1)C2 [Example 11A, (R)-(6-((4-chlorophenyl)sulfonyl)-1-(4-fluorophenyl)-4,4a,5,6,7,8-hexahydro-1H-pyrazolo[3,4-g]isoquinolin-4a-yl)(pyridin-2-yl)methanone] | < 20 nM | – | –
10 | < 0.5 nM | Cc1c(S(=O)(=O)N2CCC3=Cc4c(cnn4-c4ccc(F)cc4)C[C@]3(C(=O)c3cc(C(F)(F)F)ccn3)C2)cnn1C [Example 11BN, (R)-(6-((1,5-dimethyl-1H-pyrazol-4-yl)sulfonyl)-1-(4-fluorophenyl)-4,4a,5,6,7,8-hexahydro-1H-pyrazolo[3,4-g]isoquinolin-4a-yl)(4-(trifluoromethyl)pyridin-2-yl)methanone] | < 20 nM | – | –
11 | < 0.5 nM | Cc1ccnc(C(=O)[C@]23Cc4cnn(-c5ccc(F)cc5)c4C=C2CCN(S(=O)(=O)c2ccnn2C)C3)c1 [Example 11AJ, (R)-(1-(4-fluorophenyl)-6-((1-methyl-1H-pyrazol-5-yl)sulfonyl)-4,4a,5,6,7,8-hexahydro-1H-pyrazolo[3,4-g]isoquinolin-4a-yl)(4-methylpyridin-2-yl)methanone] | < 20 nM | – | –
12 | < 0.5 nM | CCn1cc(S(=O)(=O)N2CCC3=Cc4c(cnn4-c4ccc(F)cc4)C[C@]3(C(=O)c3cscn3)C2)cn1 [Example 11BZ, (R)-(6-((1-ethyl-1H-pyrazol-4-yl)sulfonyl)-1-(4-fluorophenyl)-4,4a,5,6,7,8-hexahydro-1H-pyrazolo[3,4-g]isoquinolin-4a-yl)(thiazol-4-yl)methanone] | 20 to 100 nM | – | –
13 | < 0.5 nM | Cc1cnc(C(=O)[C@]23Cc4cnn(-c5ccc(F)cc5)c4C=C2CCN(S(=O)(=O)c2cnn(C)c2)C3)s1 [Example 12T, (R)-(1-(4-fluorophenyl)-6-((1-methyl-1H-pyrazol-4-yl)sulfonyl)-4,4a,5,6,7,8-hexahydro-1H-pyrazolo[3,4-g]isoquinolin-4a-yl)(5-methylthiazol-2-yl)methanone] | < 20 nM | – | –
14 | < 0.5 nM | O=C(c1ccccn1)[C@]12Cc3cnn(-c4ccc(F)cc4)c3C=C1CCN(S(=O)(=O)c1ccc(F)c(Cl)c1)C2 [Example 11R, (R)-(6-((3-chloro-4-fluorophenyl)sulfonyl)-1-(4-fluorophenyl)-4,4a,5,6,7,8-hexahydro-1H-pyrazolo[3,4-g]isoquinolin-4a-yl)(pyridin-2-yl)methanone] | < 20 nM | – | –
15 | < 0.5 nM | Cc1ccnc(C(=O)[C@]23Cc4cnn(-c5ccc(F)cc5)c4C=C2CCN(S(=O)(=O)c2ccnc(C(F)(F)F)c2)C3)c1 [Example 11BB, (R)-(1-(4-fluorophenyl)-6-((2-(trifluoromethyl)pyridin-4-yl)sulfonyl)-4,4a,5,6,7,8-hexahydro-1H-pyrazolo[3,4-g]isoquinolin-4a-yl)(4-methylpyridin-2-yl)methanone] | < 20 nM | – | –
16 | < 0.5 nM | CCn1cc(S(=O)(=O)N2CCC3=Cc4c(cnn4-c4ccc(F)cc4)C[C@]3(C(=O)c3nccs3)C2)cn1 [Example 12X, (R)-(6-((1-ethyl-1H-pyrazol-4-yl)sulfonyl)-1-(4-fluorophenyl)-4,4a,5,6,7,8-hexahydro-1H-pyrazolo[3,4-g]isoquinolin-4a-yl)(thiazol-2-yl)methanone] | 20 to 100 nM | – | –
17 | – | O=C(c1ccccn1)[C@]12Cc3cnn(-c4ccc(F)cc4)c3C=C1CCN(S(=O)(=O)c1ccc(C(F)(F)F)c(F)c1)C2 [Example 11AT, (R)-(6-((3-fluoro-4-(trifluoromethyl)phenyl)sulfonyl)-1-(4-fluorophenyl)-4,4a,5,6,7,8-hexahydro-1H-pyrazolo[3,4-g]isoquinolin-4a-yl)(pyridin-2-yl)methanone] | – | < 20 nM | < 0.5 nM

— patent US12226412B2, “Heteroaryl-ketone fused azadecalin glucocorticoid receptor modulators” (Corcept Therapeutics, Inc., priority 2012, dated 2025)
